Reference: PubChem BioAssay (NCI)
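Method: 48-hour compound exposure of cells in 96-well plates, five concentrations, linear interpolation of endpoints. The concentration for full growth arrest is given as TGI.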

Assays:
Assay in all cases: DTP human tumour cell line panel, 48 h
SNB-75 CNS = test system: SNB-75 CNS
MCF7 breast = test system: MCF7 breast
A498 renal = test system: A498 renal
UACC-62 melanoma = test system: UACC-62 melanoma
EKVX NSCLC = test system: EKVX NSCLC
SNB-19 CNS = test system: SNB-19 CNS
HCT-15 colon = test system: HCT-15 colon
NCI-H226 lung = test system: NCI-H226 lung
MDA-N = test system: MDA-N
HCT-116 colon = test system: HCT-116 colon
CCRF-CEM leukemia = test system: CCRF-CEM leukemia
SK-MEL-2 melanoma = test system: SK-MEL-2 melanoma
SW-620 colon = test system: SW-620 colon
RPMI-8226 leukemia = test system: RPMI-8226 leukemia
BT-549 breast = test system: BT-549 breast
HL-60(TB) leukemia = test system: HL-60(TB) leukemia
DU-145 prostate = test system: DU-145 prostate
PC-3 prostate = test system: PC-3 prostate
HOP-62 NSCLC = test system: HOP-62 NSCLC
SF-295 CNS = test system: SF-295 CNS
SK-MEL-5 melanoma = test system: SK-MEL-5 melanoma
KM12 colon = test system: KM12 colon
786-0 renal = test system: 786-0 renal
SR leukemia = test system: SR leukemia
ACHN renal = test system: ACHN renal
OVCAR-3 ovarian = test system: OVCAR-3 ovarian
HT29 colon = test system: HT29 colon
NCI-H460 lung = test system: NCI-H460 lung
SF-539 CNS = test system: SF-539 CNS
SN12C renal = test system: SN12C renal
HOP-92 NSCLC = test system: HOP-92 NSCLC
NCI-H23 lung = test system: NCI-H23 lung
TK-10 renal = test system: TK-10 renal
OVCAR-8 ovarian = test system: OVCAR-8 ovarian
MOLT-4 leukemia = test system: MOLT-4 leukemia
LOX IMVI melanoma = test system: LOX IMVI melanoma
SK-OV-3 ovarian = test system: SK-OV-3 ovarian
T-47D breast = test system: T-47D breast
NCI/ADR-RES ovarian = test system: NCI/ADR-RES ovarian
SK-MEL-28 melanoma = test system: SK-MEL-28 melanoma
CAKI-1 renal = test system: CAKI-1 renal
HCC-2998 colon = test system: HCC-2998 colon
COLO 205 colon = test system: COLO 205 colon
MDA-MB-231 breast = test system: MDA-MB-231 breast
M14 melanoma = test system: M14 melanoma
U251 CNS = test system: U251 CNS
OVCAR-4 ovarian = test system: OVCAR-4 ovarian
SF-268 CNS = test system: SF-268 CNS
OVCAR-5 ovarian = test system: OVCAR-5 ovarian
UO-31 renal = test system: UO-31 renal
MDA-MB-435 = test system: MDA-MB-435
MALME-3M melanoma = test system: MALME-3M melanoma
A549 NSCLC = test system: A549 NSCLC
HS 578T breast = test system: HS 578T breast
IGROV1 ovarian = test system: IGROV1 ovarian
UACC-257 melanoma = test system: UACC-257 melanoma
NCI-H522 lung = test system: NCI-H522 lung
RXF 393 renal = test system: RXF 393 renal
K-562 leukemia = test system: K-562 leukemia

Cc1ccc(S(=O)(=O)N(CC(O)COc2ccccc2)c2c(F)c(F)cc(F)c2F)cc1 (configuration not stated)
TGI (SNB-75 CNS): 42.6 µM | TGI (MCF7 breast): 32.7 µM | TGI (A498 renal): 39 µM | TGI (UACC-62 melanoma): 37.5 µM | TGI (EKVX NSCLC): 92.3 µM | TGI (SNB-19 CNS): 82.1 µM | TGI (HCT-15 colon): 52 µM | TGI (NCI-H226 lung): 57.9 µM | TGI (MDA-N): 35.7 µM | TGI (HCT-116 colon): > 100 µM | TGI (CCRF-CEM leukemia): 93.6 µM | TGI (SK-MEL-2 melanoma): 31.3 µM | TGI (SW-620 colon): 85 µM | TGI (RPMI-8226 leukemia): 41.4 µM | TGI (BT-549 breast): 48.7 µM | TGI (HL-60(TB) leukemia): 19.7 µM | TGI (DU-145 prostate): > 100 µM | TGI (PC-3 prostate): 45 µM | TGI (HOP-62 NSCLC): 52.6 µM | TGI (SF-295 CNS): 62 µM | TGI (SK-MEL-5 melanoma): 30.8 µM | TGI (KM12 colon): 70.6 µM | TGI (786-0 renal): 58 µM | TGI (SR leukemia): 28.5 µM | TGI (ACHN renal): 54.1 µM | TGI (OVCAR-3 ovarian): 54.1 µM | TGI (HT29 colon): 33.4 µM | TGI (NCI-H460 lung): 35.3 µM | TGI (SF-539 CNS): 36 µM | TGI (SN12C renal): 49.9 µM | TGI (HOP-92 NSCLC): 34.2 µM | TGI (NCI-H23 lung): 43.2 µM | TGI (TK-10 renal): 84.1 µM | TGI (OVCAR-8 ovarian): 49.7 µM | TGI (MOLT-4 leukemia): 2.25 µM | TGI (LOX IMVI melanoma): 37.6 µM | TGI (SK-OV-3 ovarian): 47.2 µM | TGI (T-47D breast): 78.3 µM | TGI (NCI/ADR-RES ovarian): 42 µM | TGI (SK-MEL-28 melanoma): 36.8 µM | TGI (CAKI-1 renal): 37.1 µM | TGI (HCC-2998 colon): 53.5 µM | TGI (COLO 205 colon): 29.1 µM | TGI (MDA-MB-231 breast): 50.8 µM | TGI (M14 melanoma): 61.5 µM | TGI (U251 CNS): 48.8 µM | TGI (OVCAR-4 ovarian): 52 µM | TGI (SF-268 CNS): 38.2 µM | TGI (OVCAR-5 ovarian): 76.3 µM | TGI (UO-31 renal): 41.3 µM | TGI (MDA-MB-435): 36.5 µM | TGI (MALME-3M melanoma): 64.1 µM | TGI (A549 NSCLC): 72.8 µM | TGI (HS 578T breast): 50.8 µM

N#Cc1ncc(C(Cl)Cl)nc1Cl
TGI (SNB-75 CNS): 6.64 µM | TGI (MCF7 breast): 3.86 µM | TGI (A498 renal): > 10 µM | TGI (IGROV1 ovarian): 5.3 µM | TGI (UACC-62 melanoma): 5.9 µM | TGI (UACC-257 melanoma): 2.99 µM | TGI (EKVX NSCLC): 3.27 µM | TGI (SNB-19 CNS): > 10 µM | TGI (HCT-15 colon): 3.87 µM | TGI (NCI-H226 lung): > 10 µM | TGI (MDA-N): 3.07 µM | TGI (HCT-116 colon): 3.04 µM | TGI (CCRF-CEM leukemia): > 6.15 µM | TGI (SK-MEL-2 melanoma): 4.33 µM | TGI (SW-620 colon): 5.31 µM | TGI (NCI-H522 lung): 1.74 µM | TGI (BT-549 breast): 4.8 µM | TGI (HL-60(TB) leukemia): > 3.75 µM | TGI (DU-145 prostate): > 10 µM | TGI (PC-3 prostate): 3.62 µM | TGI (HOP-62 NSCLC): > 8.07 µM | TGI (SF-295 CNS): > 10 µM | TGI (SK-MEL-5 melanoma): 3.35 µM | TGI (KM12 colon): 2.7 µM | TGI (786-0 renal): 3.16 µM | TGI (SR leukemia): > 5.84 µM | TGI (ACHN renal): 4.32 µM | TGI (OVCAR-3 ovarian): 4.59 µM | TGI (HT29 colon): 3.16 µM | TGI (NCI-H460 lung): 3.74 µM | TGI (SF-539 CNS): 3.44 µM | TGI (SN12C renal): 3.79 µM | TGI (HOP-92 NSCLC): 0.536 µM | TGI (NCI-H23 lung): 5.94 µM | TGI (TK-10 renal): 3.82 µM | TGI (OVCAR-8 ovarian): 5.16 µM | TGI (MOLT-4 leukemia): > 6.63 µM | TGI (LOX IMVI melanoma): 2.97 µM | TGI (SK-OV-3 ovarian): > 10 µM | TGI (T-47D breast): 3.78 µM | TGI (NCI/ADR-RES ovarian): 5.38 µM | TGI (SK-MEL-28 melanoma): 4.2 µM | TGI (CAKI-1 renal): 2.89 µM | TGI (RXF 393 renal): 3.39 µM | TGI (HCC-2998 colon): 3.06 µM | TGI (COLO 205 colon): 3.3 µM | TGI (K-562 leukemia): > 7.1 µM | TGI (MDA-MB-231 breast): 3.17 µM | TGI (M14 melanoma): 2.82 µM | TGI (U251 CNS): 3.78 µM | TGI (OVCAR-4 ovarian): 3.31 µM | TGI (SF-268 CNS): > 7.78 µM | TGI (OVCAR-5 ovarian): 4.39 µM | TGI (UO-31 renal): 3.17 µM | TGI (MDA-MB-435): 3.9 µM | TGI (MALME-3M melanoma): > 6.39 µM | TGI (A549 NSCLC): > 10 µM | TGI (HS 578T breast): > 10 µM
